{"source": "patent US20040077540A1", "about": "“Compositions and methods for modulating physiology of epithelial junctional adhesion molecules for enhanced mucosal delivery of therapeutic compounds” (Nastech Pharmaceutical Company Inc., priority 2002, published 2004)", "tested_on": "EpiAirway™ Cell Membrane (mucosal epithelial cell layer)", "test": "Transepithelial electrical resistance (TER) assay in EpiAirway Cell Membrane", "type": "cell-based", "conditions": "for Average TER Value: permeabilizing peptide 1.0 mM on EpiAirway Cell Membrane, each group of lines has its own CONTROL; for TER % of Control: permeabilizing peptide 1.0 mM, control normalized to 100, decrease = increased permeability", "experimental": "The EpiAirway™ system was developed by MatTek Corp (Ashland, Mass.) as a model of the pseudostratified epithelium lining the respiratory tract. The epithelial cells are grown on porous membrane-bottomed cell culture inserts at an air-liquid interface, which results in differentiation of the cells to a highly polarized morphology. The apical surface is ciliated with a microvillous ultrastructure and the epithelium produces mucus (the presence of mucin has been confirmed by immunoblotting). The inserts have a diameter of 0.875 cm, providing a surface area of 0.6 cm^2. The cells are plated onto the inserts at the factory approximately three weeks before shipping. One “kit” consists of 24 units.\nA. On arrival, the units are placed onto sterile supports in 6-well microplates. Each well receives 5 mL of proprietary culture medium. This DMEM-based medium is serum free but is supplemented with epidermal growth factor and other factors. […] The 5 mL volume is just sufficient to provide contact to the bottoms of the units on their stands, but the apical surface of the epithelium is allowed to remain in direct contact with air. Sterile tweezers are used in this step and in all subsequent steps involving transfer of units to liquid-containing wells to ensure that no air is trapped between the bottoms of the units and the medium.\nB. The units in their plates are maintained at 37° C. in an incubator in an atmosphere of 5% CO2 in air for 24 hours. At the end of this time the medium is replaced with fresh medium and the units are returned to the incubator for another 24 hours.\nA. A “kit” of 24 EpiAirway™ units can routinely be employed for evaluating five different formulations, each of which is applied to quadruplicate wells. Each well is employed for determination of permeation kinetics (4 time points), transepithelial electrical resistance (TER), mitochondrial reductase activity as measured by MTT reduction, and cytolysis as measured by release of LDH. An additional set of wells is employed as controls, which are sham treated during determination of permeation kinetics, but are otherwise handled identically to the test sample-containing units for determinations of transepithelial resistance and viability. The determinations on the controls are routinely also made on quadruplicate units, but occasionally we have employed triplicate units for the controls and have dedicated the remaining […] units in the kit to measurements of transepithelial resistance and viability on untreated units or we have frozen and thawed the units for determinations of total LDH levels to serve as a reference for 100% cytolysis.\nA. Respiratory airway epithelial cells form tight junctions in vivo as well as in vitro, and thereby restrict the flow of solutes across the tissue. These junctions confer a transepithelial resistance of several hundred ohms×cm^2 in excised airway tissues. In the MatTek EpiAirway™ units, the transepithelial electrical resistance (TER) is reported by the manufacturer to be routinely around 1000 ohms×cm^2. […] The porous membrane-bottomed units without cells, conversely, provide only minimal transmembrane resistance (approximately 5-20 ohms×cm^2).\nB. Accurate determinations of TER require that the electrodes of the ohmmeter be positioned over a significant surface area above and below the membrane, and that the distance of the electrodes from the membrane be reproducibly controlled. The method for TER determination recommended by MatTek and employed for all experiments herein employs an “EVOM”™ epithelial voltohmmeter and an “ENDOHM”™ tissue resistance measurement chamber from World Precision Instruments, Inc., Sarasota, Fla.\nC. The chamber is initially filled with Dulbecco's phosphate buffered saline (PBS) for at least 20 minutes prior to TER determinations in order to equilibrate the electrodes.\nD. Determinations of TER are made with 1.5 mL of PBS in the chamber and 350 μL of PBS in the membrane-bottomed unit being measured. […]", "data": [{"sequence": "FLDHNIVTAQ [NP-20, Claudin-5: 1st extracellular domain]", "values": [{"measurement": "Average TER Value", "value": "341 ± 31", "unit": "ohms-cm^2"}, {"measurement": "TER % of Control", "value": 92.2, "unit": "%"}]}, {"sequence": "GGSVGYPYG [NP-39, Occludin: 1st extracellular domain]", "values": [{"measurement": "Average TER Value", "value": "442 ± 185", "unit": "ohms-cm^2"}, {"measurement": "TER % of Control", "value": 127.7, "unit": "%"}]}, {"sequence": "FIGSNIITSQ [NP-37, Claudin-3: 1st extracellular domain]", "values": [{"measurement": "Average TER Value", "value": "304 ± 41", "unit": "ohms-cm^2"}, {"measurement": "TER % of Control", "value": 66.5, "unit": "%"}]}, {"sequence": "NRIVQEFYDP [NP-11, Claudin-1: 2nd extracellular domain]", "values": [{"measurement": "Average TER Value", "value": "292 ± 20", "unit": "ohms-cm^2"}, {"measurement": "TER % of Control", "value": 94.8, "unit": "%"}]}, {"sequence": "KVFDSLLNLS [NP-2, Claudin-1: 1st extracellular domain]", "values": [{"measurement": "Average TER Value", "value": "709 ± 28", "unit": "ohms-cm^2"}, {"measurement": "TER % of Control", "value": 134.5, "unit": "%"}]}, {"sequence": "VSEEGGNSY [NP-12, JAM-1 extracellular domain]", "values": [{"measurement": "Average TER Value", "value": "279 ± 27", "unit": "ohms-cm^2"}, {"measurement": "TER % of Control", "value": 90.6, "unit": "%"}]}, {"sequence": "KVYDSLLALP [NP-7, Claudin-3: 1st extracellular domain]", "values": [{"measurement": "Average TER Value", "value": "811 ± 87", "unit": "ohms-cm^2"}, {"measurement": "TER % of Control", "value": 153.9, "unit": "%"}]}, {"sequence": "TTWLGLWMSC [NP-45, Claudin-1: 1st extracellular domain]", "values": [{"measurement": "Average TER Value", "value": "456 ± 162", "unit": "ohms-cm^2"}, {"measurement": "TER % of Control", "value": 131.8, "unit": "%"}]}, {"sequence": "YGYGGYTDP [NP-15, Occludin: 1st extracellular domain]", "values": [{"measurement": "Average TER Value", "value": "383 ± 79", "unit": "ohms-cm^2"}, {"measurement": "TER % of Control", "value": 103.5, "unit": "%"}]}, {"sequence": "KVYDSVLALS [NP-43, Claudin-5: 1st extracellular domain]", "values": [{"measurement": "Average TER Value", "value": "446 ± 85", "unit": "ohms-cm^2"}, {"measurement": "TER % of Control", "value": 128.9, "unit": "%"}]}, {"sequence": "TIWEGLWMNC [NP-40, Claudin-4: 1st extracellular domain]", "values": [{"measurement": "Average TER Value", "value": "457 ± 146", "unit": "ohms-cm^2"}, {"measurement": "TER % of Control", "value": 100.0, "unit": "%"}]}, {"sequence": "GSGFGSYGS [NP-5, Occludin: 1st extracellular domain]", "values": [{"measurement": "Average TER Value", "value": "520 ± 134", "unit": "ohms-cm^2"}, {"measurement": "TER % of Control", "value": 98.7, "unit": "%"}]}, {"sequence": "ATHSTGITQC [NP-44, Claudin-2: 1st extracellular domain]", "values": [{"measurement": "Average TER Value", "value": "464 ± 61", "unit": "ohms-cm^2"}, {"measurement": "TER % of Control", "value": 134.1, "unit": "%"}]}, {"sequence": "FIGSNIVTSQ [NP-35, Claudin-4: 1st extracellular domain]", "values": [{"measurement": "Average TER Value", "value": "298 ± 56", "unit": "ohms-cm^2"}, {"measurement": "TER % of Control", "value": 65.2, "unit": "%"}]}, {"sequence": "DRGYGTSLL [NP-3, Occludin: 1st extracellular domain]", "values": [{"measurement": "Average TER Value", "value": "766 ± 94", "unit": "ohms-cm^2"}, {"measurement": "TER % of Control", "value": 145.4, "unit": "%"}]}, {"sequence": "KFDQGDTTR [NP-6, JAM-1 extracellular domain]", "values": [{"measurement": "Average TER Value", "value": "793 ± 44", "unit": "ohms-cm^2"}, {"measurement": "TER % of Control", "value": 150.5, "unit": "%"}]}, {"sequence": "IVVREFYDPS [NP-14, Claudin-5: 2nd extracellular domain]", "values": [{"measurement": "Average TER Value", "value": "286 ± 56", "unit": "ohms-cm^2"}, {"measurement": "TER % of Control", "value": 92.9, "unit": "%"}]}, {"sequence": "GEVKVKLIV [NP-9, JAM-1 extracellular domain]", "values": [{"measurement": "Average TER Value", "value": "342 ± 185", "unit": "ohms-cm^2"}, {"measurement": "TER % of Control", "value": 92.4, "unit": "%"}]}, {"sequence": "NIWEGLWMNC [NP-34, Claudin-3: 1st extracellular domain]", "values": [{"measurement": "Average TER Value", "value": "297 ± 40", "unit": "ohms-cm^2"}, {"measurement": "TER % of Control", "value": 65.0, "unit": "%"}]}, {"sequence": "AMYEGLWMSC [NP-38, Claudin-1 1st extracellular domain]", "values": [{"measurement": "Average TER Value", "value": "291 ± 89", "unit": "ohms-cm^2"}, {"measurement": "TER % of Control", "value": 63.7, "unit": "%"}]}, {"sequence": "VVQSTGQMQC [NP-36, Claudin-3: 1st extracellular domain]", "values": [{"measurement": "Average TER Value", "value": "306 ± 58", "unit": "ohms-cm^2"}, {"measurement": "TER % of Control", "value": 67.0, "unit": "%"}]}, {"sequence": "VVQSTGHMQC [NP-16, Claudin-5: 1st extracellular domain]", "values": [{"measurement": "Average TER Value", "value": "386 ± 44", "unit": "ohms-cm^2"}, {"measurement": "TER % of Control", "value": 104.3, "unit": "%"}]}, {"sequence": "VSQSTGQIQC [NP-18, Claudin-1: 1st extracellular domain]", "values": [{"measurement": "Average TER Value", "value": "439 ± 145", "unit": "ohms-cm^2"}, {"measurement": "TER % of Control", "value": 118.6, "unit": "%"}]}, {"sequence": "YVGASIVTAV [NP-19, Claudin-2: 1st extracellular domain]", "values": [{"measurement": "Average TER Value", "value": "374 ± 57", "unit": "ohms-cm^2"}, {"measurement": "TER % of Control", "value": 101.1, "unit": "%"}]}, {"sequence": "GYGYGYGYG [NP-4, Occludin: 1st extracellular domain]", "values": [{"measurement": "Average TER Value", "value": "500 ± 42", "unit": "ohms-cm^2"}, {"measurement": "TER % of Control", "value": 94.9, "unit": "%"}]}, {"sequence": "LVCYNNKIT [NP-13, JAM-1 extracellular domain]", "values": [{"measurement": "Average TER Value", "value": "288 ± 51", "unit": "ohms-cm^2"}, {"measurement": "TER % of Control", "value": 93.5, "unit": "%"}]}, {"sequence": "SVTVHSSEP [NP-1, JAM-1 extracellular domain]", "values": [{"measurement": "Average TER Value", "value": "606 ± 130", "unit": "ohms-cm^2"}, {"measurement": "TER % of Control", "value": 115.0, "unit": "%"}]}]}
